The assay concerns the target TLX LBD (Homo sapiens (Human), UniProt Q9Y466). Briefly: ALPHA screen assay for TLX LBD and coactivator peptide recruitment. Format: biochemical. Conditions: Table 3; for Average ALPHA signal at 200 μM (std. dev.): mean (std. dev.). The method, then: Assays were performed according to the manufacturer's protocol (PerkinElmer, USA), with the following modifications: Ligands were tested for TLX-coactivator binding in 50 mM phosphate buffer, 150 mM NaCl, pH 7, 1 mM DTT and 100 μM CHAPS. Ligands were dissolved and diluted in DMSO as stocks and were prepared in assay buffer from the original stock in the 100% DMSO and added to the assay plate. Biotinylated SRC peptide and polyhistidine tagged TLX LBD were diluted in assay buffer, subsequently added to respective ALPHA beads, under low light. The plates were spun down, mixed with a shaker and incubated for 120 minutes and read on a TECAN Plate reader using the manufacturer's protocol.

Data on 53 molecules can be found in patent publication US20240067625A1, “SMALL-MOLECULE MODULATORS OF THE ORPHAN NUCLEAR RECEPTOR TLX” (priority 2020, published 2024).

One may read the EC50 as the midpoint of the concentration-response curve. Lower therefore signals a more potent agent.

TLX LBD, sequence (Q9Y466 155-383): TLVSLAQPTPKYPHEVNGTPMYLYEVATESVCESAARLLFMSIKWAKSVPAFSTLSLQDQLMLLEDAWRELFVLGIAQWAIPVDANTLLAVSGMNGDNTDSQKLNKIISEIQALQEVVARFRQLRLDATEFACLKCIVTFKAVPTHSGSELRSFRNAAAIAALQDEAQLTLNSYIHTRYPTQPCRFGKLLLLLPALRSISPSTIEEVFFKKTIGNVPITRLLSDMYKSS

Take `Cc1cc(C(=O)N2CCN(C(c3ccccc3)c3ccccc3)CC2)nn1C` [Compound 30, reference compound]: the EC50 came to 0.0673 nM and the “Average ALPHA signal at 200 μM (std. dev.)” value (from here on “Average ALPHA signal”) is on record as 1.93 (0.08).
On the same counts, the results for `Cc1ccccc1CN1CCN(C(=O)c2cccnc2NCCC(C)C)[C@@H](C)C1` [Compound 31] are 0.0138 nM and 4.52 (0.06).
Regarding `Cc1cccc(CN2CCN(C(=O)c3cccnc3NCCC(C)C)[C@@H](C)C2)c1` [Compound 32], a half-maximal response (EC50) required 0.0143 nM and the “Average ALPHA signal” value is reported as 3.85 (0.09).
The like results for `Cc1ccc(CN2CCN(C(=O)c3cccnc3NCCC(C)C)[C@@H](C)C2)cc1` [Compound 33] were, in that order, 0.0187 nM and 3.89 (0.21).
On to `CC(C)CCNc1ncccc1C(=O)N1CCN(Cc2ccccn2)C[C@@H]1C` [Compound 34], for which the “Average ALPHA signal” value is 1.29 (0.05).
Regarding `CC(C)CCNc1ncccc1C(=O)N1CCN(CCCc2ccccc2)C[C@@H]1C` [Compound 35], the midpoint of the response, the EC50, lay at 0.0128 nM and the “Average ALPHA signal” value was 4.57 (0.38).
The like results for `CCCCCCN1CCN(C(=O)c2cccnc2NCCC(C)C)[C@@H](C)C1` [Compound 36] were, in that order, 0.0126 nM and 8.78 (0.30).
As to `CCCCN1CCN(C(=O)c2cccnc2NCCC(C)C)[C@@H](C)C1` [Compound 37], the response was half-maximal at 0.0335 nM (EC50) and the “Average ALPHA signal” value is listed as 2.30 (0.02).
Regarding `CC(C)CCNc1ncccc1C(=O)N1CCN(C)C[C@@H]1C` [Compound 38], the “Average ALPHA signal” value is recorded as 0.85 (0.06).
With `COc1cccc(CN2CCN(C(=O)c3cccnc3NCCC(C)C)[C@@H](C)C2)c1` [Compound 39], the concentration for a half-maximal effect (EC50) was 0.0276 nM and the “Average ALPHA signal” value is on record as 3.19 (0.17).
On the same counts, the results for `CC(C)CCNc1ncccc1C(=O)N1CCN(Cc2ccc3cnccc3c2)C[C@@H]1C` [Compound 40] are 0.0529 nM and 2.48 (0.02).
On the same counts, the results for `CC(C)CCNc1ncccc1C(=O)N1CCN(CCC2CCN(C(=O)OC(C)(C)C)CC2)C[C@@H]1C` [Compound 41] are 0.00585 nM and 2.73 (0.13).
Consider `CC(C)CCNc1ncccc1C(=O)N1CCN(Cc2c[nH]c3ccccc23)C[C@@H]1C` [Compound 42], for which the “Average ALPHA signal” value is recorded as 0.96 (0.05).
Same read-out and setting: the figure for `Cc1ccccc1CN1CCN(C(=O)c2cccnc2NCCC(C)C)[C@H](C)C1` [Compound 43] is 3.49 (0.17).
Regarding `Cc1cccc(CN2CCN(C(=O)c3cccnc3NCCC(C)C)[C@H](C)C2)c1` [Compound 44], the 50% effective concentration (EC50) was 0.0124 nM and the “Average ALPHA signal” value was 3.28 (0.09).
The like results for `Cc1ccc(CN2CCN(C(=O)c3cccnc3NCCC(C)C)[C@H](C)C2)cc1` [Compound 45] were, in that order, 0.0113 nM and 3.50 (0.06).
As to `CC(C)CCNc1ncccc1C(=O)N1CCN(Cc2ccccn2)C[C@H]1C` [Compound 46], the “Average ALPHA signal” value is listed as 0.86 (0.09).
For `CCCCCCN1CCN(C(=O)c2cccnc2NCCC(C)C)[C@H](C)C1` [Compound 47], the EC50 worked out at 0.0125 nM and the “Average ALPHA signal” value is reported as 7.81 (0.45).
With `CC(C)CCNc1ncccc1C(=O)N1CCN(CCCc2ccccc2)C[C@H]1C` [Compound 48], the “Average ALPHA signal” value is recorded as 3.75 (0.31).
As to `CCCCN1CCN(C(=O)c2cccnc2NCCC(C)C)[C@H](C)C1` [Compound 49], the concentration for a half-maximal effect (EC50) is 0.0332 nM and the “Average ALPHA signal” value is given as 3.09 (0.12).
Turning to `CC(C)CCNc1ncccc1C(=O)N1CCN(C)C[C@H]1C` [Compound 50], the “Average ALPHA signal” value is 0.93 (0.05).
Consider `COc1cccc(CN2CCN(C(=O)c3cccnc3NCCC(C)C)[C@H](C)C2)c1` [Compound 51], for which the 50% effective concentration (EC50) was determined as 0.0199 nM and the “Average ALPHA signal” value is 2.98 (0.10).
Take `CC(C)CCNc1ncccc1C(=O)N1CCN(Cc2ccc3cnccc3c2)C[C@H]1C` [Compound 52]: the concentration for a half-maximal effect (EC50) amounted to 0.0261 nM and the “Average ALPHA signal” value is reported as 2.03 (0.12).
Take `CC(C)CCNc1ncccc1C(=O)N1CCN(CCC2CCN(C(=O)OC(C)(C)C)CC2)C[C@H]1C` [Compound 53]: the EC50 came to 0.00904 nM and the “Average ALPHA signal” value is given as 2.84 (0.05).
Consider `CC(C)CCNc1ncccc1C(=O)N1CCN(Cc2c[nH]c3ccccc23)C[C@H]1C` [Compound 54], for which the “Average ALPHA signal” value was 1.17 (0.06).
As to `COC(=O)c1ccccc1CN1CCN(C(=O)c2cccnc2NCCC(C)C)CC1` [Compound 55], the EC50 was determined as 0.0412 nM and the “Average ALPHA signal” value was 2.87 (0.07).
The like results for `COC(=O)c1cccc(CN2CCN(C(=O)c3cccnc3NCCC(C)C)CC2)c1` [Compound 56] were, in that order, 0.0442 nM and 2.74 (0.08).
As to `COC(=O)c1ccc(CN2CCN(C(=O)c3cccnc3NCCC(C)C)CC2)cc1` [Compound 57], the half-maximal effective concentration (EC50) came to 0.0745 nM and the “Average ALPHA signal” value is 2.54 (0.04).
Consider `CC(C)CCNc1ncccc1C(=O)N1CCN(Cc2ccccc2C(=O)O)CC1` [Compound 58], for which the “Average ALPHA signal” value was 1.30 (0.05).
On the same count and under the same terms, under `CC(C)CCNc1ncccc1C(=O)N1CCN(Cc2cccc(C(=O)O)c2)CC1` [Compound 59] stands 1.25 (0.09); under `CC(C)CCNc1ncccc1C(=O)N1CCN(Cc2ccc(C(=O)O)cc2)CC1` [Compound 60], 1.06 (0.05).
As for `COC(=O)C[C@@H]1CN(C(=O)c2cccnc2NCCC(C)C)C[C@H](C)N1Cc1ccccc1` [Compound 61], the EC50 came to 0.0152 nM and the “Average ALPHA signal” value was 2.89 (0.07).
On the same counts, the results for `COC(=O)C[C@H]1CN(C(=O)c2cccnc2NCCC(C)C)C[C@H](C)N1Cc1ccccc1` [Compound 62] are 0.012 nM and 2.54 (0.08).
The like results for `COC(=O)C[C@H]1CN(C(=O)c2cccnc2NCCC(C)C)C[C@@H](C)N1Cc1ccccc1` [Compound 63] were, in that order, 0.0123 nM and 2.72 (0.05).
With `COC(=O)C[C@@H]1CN(C(=O)c2cccnc2NCCC(C)C)C[C@@H](C)N1Cc1ccccc1` [Compound 64], it took 0.00858 nM to reach a half-maximal effect (EC50) and the “Average ALPHA signal” value is given as 2.26 (0.07).
Turning to `CC(C)CCNc1ncccc1C(=O)N1C[C@@H](CC(=O)O)N(Cc2ccccc2)[C@@H](C)C1` [Compound 65], the “Average ALPHA signal” value is 0.99 (0.04).
On the same count and under the same terms, the figure for `CC(C)CCNc1ncccc1C(=O)N1C[C@H](CC(=O)O)N(Cc2ccccc2)[C@@H](C)C1` [Compound 66] is 0.96 (0.03); for `CC(C)CCNc1ncccc1C(=O)N1C[C@H](CC(=O)O)N(Cc2ccccc2)[C@H](C)C1` [Compound 67] it is 0.97 (0.03); for `CC(C)CCNc1ncccc1C(=O)N1C[C@@H](CC(=O)O)N(Cc2ccccc2)[C@H](C)C1` [Compound 68] it is 1.02 (0.03).
`COC(=O)C[C@@H]1[C@H](C)N(Cc2ccccc2)CCN1C(=O)c1cccnc1NCCC(C)C` [Compound 69]: it took 0.0081 nM to reach a half-maximal effect (EC50) and the “Average ALPHA signal” value was 2.53 (0.08).
Take `COC(=O)C[C@H]1[C@H](C)N(Cc2ccccc2)CCN1C(=O)c1cccnc1NCCC(C)C` [Compound 70]: a half-maximal effect (EC50) was put at 0.00485 nM and the “Average ALPHA signal” value is 2.63 (0.01).
With `COC(=O)C[C@H]1[C@@H](C)N(Cc2ccccc2)CCN1C(=O)c1cccnc1NCCC(C)C` [Compound 71], the “Average ALPHA signal” value is 2.47 (0.03).
The same measure, in the same setting: the figure for `COC(=O)C[C@@H]1[C@@H](C)N(Cc2ccccc2)CCN1C(=O)c1cccnc1NCCC(C)C` [Compound 72] is 2.51 (0.10).
Take `COC(=O)C[C@H]1CN(Cc2ccccc2)[C@@H](C)CN1C(=O)c1cccnc1NCCC(C)C` [Compound 73]: the “Average ALPHA signal” value is reported as 2.69 (0.07).
With `COC(=O)C[C@@H]1CN(Cc2ccccc2)[C@@H](C)CN1C(=O)c1cccnc1NCCC(C)C` [Compound 74], the 50% effective concentration (EC50) amounted to 0.00982 nM and the “Average ALPHA signal” value was 2.96 (0.08).
As for `COC(=O)C[C@@H]1CN(Cc2ccccc2)[C@H](C)CN1C(=O)c1cccnc1NCCC(C)C` [Compound 75], the EC50 amounted to 0.00794 nM and the “Average ALPHA signal” value is recorded as 2.65 (0.04).
Turning to `COC(=O)C[C@H]1CN(Cc2ccccc2)[C@H](C)CN1C(=O)c1cccnc1NCCC(C)C` [Compound 76], the concentration giving a half-maximal response (EC50) is 0.0126 nM and the “Average ALPHA signal” value is 3.09 (0.18).
On to `CC(C)CCNc1ncccc1C(=O)N1CCN(Cc2ccccc2)[C@@H](C)[C@H]1CC(=O)O` [Compound 77], for which the “Average ALPHA signal” value is 1.09 (0.06).
The same measure, in the same setting: under `CC(C)CCNc1ncccc1C(=O)N1CCN(Cc2ccccc2)[C@@H](C)[C@@H]1CC(=O)O` [Compound 78] stands 1.16 (0.03); under `CC(C)CCNc1ncccc1C(=O)N1CCN(Cc2ccccc2)[C@H](C)[C@@H]1CC(=O)O` [Compound 79], 1.23 (0.02).
On the same count and under the same terms, the figure for `CC(C)CCNc1ncccc1C(=O)N1CCN(Cc2ccccc2)[C@H](C)[C@H]1CC(=O)O` [Compound 80] is 1.11 (0.07); for `CC(C)CCNc1ncccc1C(=O)N1C[C@H](C)N(Cc2ccccc2)C[C@@H]1CC(=O)O` [Compound 81] it is 1.15 (0.02); for `CC(C)CCNc1ncccc1C(=O)N1C[C@H](C)N(Cc2ccccc2)C[C@H]1CC(=O)O` [Compound 82] it is 1.11 (0.02).
